Tested on: Eschericia coli (E. coli) strain ATCC25922
Assay: Standard microdilution assay, MIC against E. coli ATCC25922
Type: cell-based
Conditions: Escherichia coli; E. coli strain ATCC25922, standard microdilution assay; cutoff 16 micrograms/mL; read-out: MIC E. Coli
Protocol: The in vitro activity of the compounds of the present invention can be determined. Antimicrobial testing is typically performed to determine the minimum inhibitory concentration (MIC). Minimum inhibitory concentrations (MICs) are determined by the microdilution method in a final volume of 100 μl according to protocols outlined by The Clinical and Laboratory Standards Institute (CLSI). Performance standards for reference strains are assessed within the same experimental design to maintain quality control. See, for example, Clinical Laboratory Standards Institute: Methods for dilution antimicrobial susceptibility tests for bacteria that grow aerobically M7-A8. Approved Standard-Eighth Edition. Wayne, Pa.: CLSI; December 2008; and Clinical Laboratory Standards Institute: Performance Standards for Antimicrobial Susceptibility Testing M100-S20; Approved Standard-Twentieth Edition. Wayne, Pa.: CLSI; June 2010.
The compounds of the present invention were tested for antimicrobial activity. The Compounds 1-582 were run against Eschericia coli (E. coli) strain ATCC25922 and Compounds 320-582 were run against Staphylococcus aureus (S. aureus) 11540 strain using a standard microdilution assay to determine minimum inhibitory concentrations (MICs). […] It will be recognized by one skilled in the art that the compounds can be assessed against other bacterial organisms and that the presentation of data for activity against Eschericia coli and Staphylococcus aureus are illustrative and in no way is intended to limit the scope of the present invention. The compounds of the present invention can be assayed against a range of other microorganisms depending upon the performance activity desired to be gathered. Furthermore, the “+” and “−” representation and the selection of a cutoff value of 16 micrograms/mL is also illustrative and in no way is intended to limit the scope of the present invention.

MIC [µg/mL] | SMILES
< 16 | C[C@H](N)CCCc1cc(Cl)c(F)c(-c2cc3cn(-c4ccc(CNCC[C@@H](N)CCO)cc4)c(=O)nc3[nH]2)c1 [Compound 184]
< 16 | C[C@H](NCCCNC(=N)N)c1ccc(-n2cc3cc(-c4cc(CCC[C@H](C)NC(=O)CN)cc(Cl)c4F)[nH]c3nc2=O)cc1 [Compound 72]
> 16 | CNCCNCc1ccc(-n2cc3cc[nH]c3nc2=O)cc1 [Compound 142]
< 16 | C[C@H](N)CCCc1cc(OC(F)(F)F)c(F)c(-c2cc3cn(-c4ccc(C[C@H](N)CCCNC(=N)N)cc4)c(=O)nc3[nH]2)c1 [Compound 231]
< 16 | C[C@H](NCCCNC(=N)N)c1ccc(-n2cc3cc(-c4cc(CCC[C@@H](N)CF)cc(SC(F)(F)F)c4)[nH]c3nc2=O)cc1 [Compound 117]
< 16 | C[C@H](N)CCCc1cc(Cl)c(F)c(-c2cc3cn(-c4ccc([C@@H](CCc5ccncc5)NCCCNC(=N)N)cc4)c(=O)nc3[nH]2)c1 [Compound 69]
< 16 | C[C@H](NCCCNC(=N)N)c1ccc(-n2cc3cc(-c4cc(CCC[C@@H](N)CO)cc(OC(F)(F)F)c4F)[nH]c3nc2=O)cc1 [Compound 243]
< 16 | C[C@H](N)CCCc1cc(Cl)c(F)c(-c2cc3cn(-c4ccc(C[C@H](N)CCCNC(=N)N)cc4)c(=O)nc3[nH]2)c1 [Compound 230]
< 16 | C[C@H](NCCCNC(=N)N)c1ccc(-n2cc3cc(-c4cc(CCC[C@@H](N)CN)cc(Cl)c4F)[nH]c3nc2=O)cc1 [Compound 319]
< 16 | N=C(N)NCCCNCc1ccc(-n2cc3cc(-c4ccc(/C=N/OCCNC(=N)N)cc4)[nH]c3nc2=O)cc1 [Compound 53]
< 16 | N=C(N)NCCCNCc1cccc(-n2cc3cc(-c4ccc(C(NC5CN(C(=N)N)C5)C(F)(F)F)cc4)[nH]c3nc2=O)c1 (stereo not shown) [Compound 89]
< 16 | C=CC[C@@H](NCCCNC(=N)N)c1ccc(-n2cc3cc(-c4cc(CCC[C@H](C)N)cc(Cl)c4F)[nH]c3nc2=O)cc1 [Compound 3]
< 16 | C[C@H](N)CCCc1cc(Cl)c(F)c(-c2cc3cn(-c4ccc(CNCCC5(N)CNC5)cc4)c(=O)nc3[nH]2)c1 [Compound 189]
> 16 | C[C@H](N)CCCc1cc(SC(F)(F)F)cc(-c2cc3cn(-c4ccc(CNCC(=O)O)cc4)c(=O)nc3[nH]2)c1 [Compound 116]
< 16 | C[C@H](NCCCNC(=N)N)c1ccc(-n2cc3cc(-c4cc(SC(F)(F)F)cc([C@H](O)CC[C@@H](N)CCO)c4)[nH]c3nc2=O)cc1 [Compound 133]
< 16 | C[C@H](NCCCNC(=N)N)c1ccc(-n2cc3cc(-c4cc(CCC[C@@H](N)COC(=O)c5ccccc5)cc(Cl)c4F)[nH]c3nc2=O)cc1 [Compound 300]
< 16 | C[C@H](N)CCCc1cc(SC(F)(F)F)cc(-c2cc3cn(-c4ccc([C@H](Cn5ccnn5)NCCCNC(=N)N)cc4)c(=O)nc3[nH]2)c1 [Compound 88]
< 16 | C[C@H](N)CCCc1cc(OC(F)(F)F)c(F)c(-c2cc3cn(-c4ccc([C@H](C)NCC[C@@H](Cc5c[nH]nn5)NC(=N)N)cc4)c(=O)nc3[nH]2)c1 [Compound 268]
> 16 | C[C@H](N)CCCc1cc(Cl)c(F)c(-c2cc3cn(-c4ccc(CNCC(=N)N)cc4)c(=O)nc3[nH]2)c1 [Compound 169]
< 16 | C[C@H](N)CCCc1cc(OC(F)(F)F)c(F)c(-c2cc3cn(-c4ccc([C@H](C)NCC[C@H](C)N)cc4)c(=O)nc3[nH]2)c1 [Compound 223]
< 16 | C[C@H](N)CCCc1cc(-c2cc3cn(-c4ccc([C@H]5COC(=O)N5CCCNC(=N)N)cc4)c(=O)nc3[nH]2)cc(C(F)(F)F)c1 [Compound 98]
< 16 | C[C@H](N)CCCc1cc(OC(F)(F)F)c(F)c(-c2cc3cn(-c4ccc(CN[C@@H](CO)CCNC(=N)N)cc4)c(=O)nc3[nH]2)c1 [Compound 274]
> 16 | C[C@H](N)CCCc1cc(Cl)c(F)c(-c2cc3cn(-c4ccc(CNCCC(N)C(F)(F)F)cc4)c(=O)nc3[nH]2)c1 (stereo partly shown) [Compound 172]
< 16 | CC[C@H](N)COCc1cc(SC(F)(F)F)cc(-c2cc3cn(-c4ccc([C@H](C)NCCCNC(=N)N)cc4)c(=O)nc3[nH]2)c1 [Compound 64]
< 16 | C=C[C@H](N)CC[C@@H](O)c1cc(SC(F)(F)F)cc(-c2cc3cn(-c4ccc([C@H](C)NCCCNC(=N)N)cc4)c(=O)nc3[nH]2)c1 [Compound 78]
< 16 | C[C@H](N)CCCc1cc(Cl)c(F)c(-c2cc3cn(-c4ccc([C@H](N)CCCCNC(=N)N)cc4)c(=O)nc3[nH]2)c1 [Compound 92]

MIC [µg/mL] | SMILES
< 16 | C=CC[C@@H](NCCCNC(=N)N)c1ccc(-n2cc3cc(-c4cc(CCC[C@H](C)N)cc(C(F)(F)F)c4)[nH]c3nc2=O)cc1 [Compound 4]
< 16 | C[C@H](N)CCCc1cc(Cl)c(F)c(-c2cc3cn(-c4ccc([C@H](CCF)NCCCNC(=N)N)cc4)c(=O)nc3[nH]2)c1 [Compound 74]
< 16 | C[C@H](N)CCCc1cc(SC(F)(F)F)cc(-c2cc3cn(-c4ccc([C@H](Cc5c[nH]nn5)NCCCNC(=N)N)cc4)c(=O)nc3[nH]2)c1 [Compound 48]
< 16 | N=C(N)NCCCNCc1ccc(-n2cc3cc(-c4cc(OC(F)(F)F)cc([C@H]5C[C@H](N)CCO5)c4)[nH]c3nc2=O)cc1 [Compound 35]
< 16 | C=CC[C@H](CCN[C@@H](C)c1ccc(-n2cc3cc(-c4cc(CCC[C@H](C)N)cc(Cl)c4F)[nH]c3nc2=O)cc1)NC(=N)N [Compound 251]
< 16 | C[C@H](N)CCCc1cc(Cl)c(F)c(-c2cc3cn(-c4ccc([C@H](C)N[C@H](CCO)CCNC(=N)N)cc4)c(=O)nc3[nH]2)c1 [Compound 291]
> 16 | C[C@H](N)CCCc1cc(Cl)c(F)c(-c2cc3cn(-c4ccc(CNCc5ccc(=O)[nH]c5)cc4)c(=O)nc3[nH]2)c1 [Compound 149]
< 16 | C[C@H](N)CC[C@@H](O)c1cc(-c2cc3cn(-c4ccc([C@H](C)NCCCNC(=N)N)cc4)c(=O)nc3[nH]2)cc(C(F)(F)F)c1 [Compound 21]
< 16 | C[C@H](N)CC[C@H](O)c1cc(SC(F)(F)F)cc(-c2cc3cn(-c4ccc([C@H](C)NCCCNC(=N)N)cc4)c(=O)nc3[nH]2)c1 [Compound 68]
< 16 | C[C@H](N)CCCc1cc(Cl)c(F)c(-c2cc3cn(-c4ccc([C@@H](C)NCCCN)cc4)c(=O)nc3[nH]2)c1 [Compound 318]
< 16 | COc1ccc(Cn2cc(C[C@H](NCCCNC(=N)N)c3ccc(-n4cc5cc(-c6cc(CCC[C@H](C)N)cc(SC(F)(F)F)c6)[nH]c5nc4=O)cc3)nn2)cc1 [Compound 43]
< 16 | C[C@H](N)CCCc1cc(Cl)c(F)c(-c2cc3cn(-c4ccc(CN[C@@H](CO)CCNC(=N)N)cc4)c(=O)nc3[nH]2)c1 [Compound 273]
> 16 | C[C@H](N)CCCc1cc(Cl)c(F)c(-c2cc3cn(-c4ccc(CNCc5cnc(N)s5)cc4)c(=O)nc3[nH]2)c1 [Compound 158]
< 16 | C=CCC[C@H](NCCCNC(=N)N)c1ccc(-n2cc3cc(-c4cc(CCC[C@H](C)N)cc(Cl)c4F)[nH]c3nc2=O)cc1 [Compound 81]
< 16 | C[C@H](N)CCCc1cc(Cl)c(F)c(-c2cc3cn(-c4ccc([C@H](C)NCC[C@H](Cn5ccnn5)NC(=N)N)cc4)c(=O)nc3[nH]2)c1 [Compound 293]
< 16 | C[C@H](NCCCNC(=N)N)c1ccc(-n2cc3cc(-c4cc(SC(F)(F)F)cc([C@H](O)CC[C@H](N)CCO)c4)[nH]c3nc2=O)cc1 [Compound 132]
< 16 | COCC[C@H](NCCCNC(=N)N)c1ccc(-n2cc3cc(-c4cc(CCC[C@H](C)N)cc(C(F)(F)F)c4)[nH]c3nc2=O)cc1 [Compound 28]
> 16 | C[C@H](N)CCCc1cc(SC(F)(F)F)cc(-c2cc3cn(-c4ccc(CN)cc4)c(=O)nc3[nH]2)c1 [Compound 137]
< 16 | C=CC[C@@H](N)CCNCc1ccc(-n2cc3cc(-c4cc(CCC[C@H](C)N)cc(Cl)c4F)[nH]c3nc2=O)cc1 [Compound 206]
< 16 | C[C@H](N)CCCc1cc(Cl)c(F)c(-c2cc3c([nH]2)NC(=O)N(c2ccc([C@H](C)NCCCNC(=N)N)cc2)C3)c1 [Compound 246]
< 16 | C[C@H](N)CCCc1cc(SC(F)(F)F)cc(-c2cc3cn(-c4ccc(C(NCCCNC(=N)N)c5nnn[nH]5)cc4)c(=O)nc3[nH]2)c1 (stereo partly shown) [Compound 106]
< 16 | C[C@H](N)CCCc1cc(-c2cc3cn(-c4ccc([C@H](Cn5ccnn5)NCCCNC(=N)N)cc4)c(=O)nc3[nH]2)cc(C(F)(F)F)c1 [Compound 94]
< 16 | C[C@H](N)CCCc1cc(Cl)c(F)c(-c2cc3cn(-c4ccc([C@@H](CCN)NCCCNC(=N)N)cc4)c(=O)nc3[nH]2)c1 [Compound 2]
> 16 | O=C(O)CCNCc1ccc(-n2cc3cc[nH]c3nc2=O)cc1 [Compound 138]
< 16 | C[C@H](N)CCCc1cc(SC(F)(F)F)cc(-c2cc3cn(-c4ccc([C@H](CCN)NCCCNC(=N)N)cc4)c(=O)nc3[nH]2)c1 [Compound 23]
< 16 | C[C@H](N)CCCc1cc(Cl)c(F)c(-c2cc3cn(-c4ccc(CN[C@H](C)CCNC(=N)N)cc4)c(=O)nc3[nH]2)c1 [Compound 209]
